Data set [1] has as its system P388. Kind of data set: Antitumor activity against mouse P388 cells xenografted in mouse assessed as median survival time at 0.4 mg/kg, ip relative to control. The data set is classed as functional. The note with it: route intraperitoneal.
In data set [2] the test system is HeLa. Description: Cytotoxicity against human HeLa cells assessed as colony formation at 12.5 ng/ml relative to control. The data set is classed as functional.
Data set [3] relates to HeLa. Description: Cytotoxicity against human HeLa cells assessed as inhibition of colony formation relative to control. In kind it is functional. The following applies: read-out: ID50 (the source's name).
Data set [4] concerns HeLa. Kind of data set: Cytotoxicity against human HeLa cells assessed as colony formation at 6.2 ng/ml relative to control. In kind it is functional.
In data set [5] the test system is P388. Kind of data set: Cytotoxicity against doxorubicin resistant mouse P388 cells. The note with it: read-out: ID50 (the source's name). The data set is classed as functional.
Data set [6] deals with Mus musculus. Description: Toxicity in mouse P388 cells xenografted mouse assessed as induction of death at 1.5 mg/kg, ip. The data set is classed as organism-based. More on the design: dose 1.5 mg/kg, route intraperitoneal. The following applies: in vivo.
The test system of data set [7] is HeLa. Description: Cytotoxicity against human HeLa cells assessed as colony formation at 1.5 ng/ml relative to control. The data set is classed as functional.
Data set [8] concerns P388. Description: Antitumor activity against mouse P388 cells xenografted in mouse assessed as median survival time at 1.5 mg/kg, ip relative to control. In kind it is functional. The note with it: route intraperitoneal.
Data set [9] has as its system P388. Kind of data set: Antitumor activity against mouse P388 cells xenografted in mouse assessed as median survival time at 0.6 mg/kg, ip relative to control. The note with it: route intraperitoneal. In kind it is functional.
Data set [10] deals with P388. Description: Cytotoxicity against mouse P388 cells. In kind it is functional. The following applies: read-out: ID50 (the source's name).
Data set [11] relates to Mus musculus. Kind of data set: Toxicity in mouse P388 cells xenografted mouse assessed as induction of death at 0.6 mg/kg, ip. The note with it: in vivo. More on the design: dose 0.6 mg/kg, route intraperitoneal. The data set is classed as organism-based.
The test system of data set [12] is P388. Kind of data set: Antitumor activity against mouse P388 cells xenografted in mouse assessed as median survival time at 1 mg/kg, ip relative to control. The data set is classed as functional. The note with it: route intraperitoneal.
Data set [13] has as its system Staphylococcus aureus. Description: Antimicrobial activity against drug resistant Staphylococcus aureus isolate 153 producing beta lactamase by tube dilution method. The data set is classed as functional.
The test system of data set [14] is Staphylococcus aureus. Kind of data set: Antimicrobial activity against Staphylococcus aureus 209 P by tube dilution method. The data set is classed as functional.
The next data set has as its system Escherichia coli. Kind of data set: Antimicrobial activity against Escherichia coli B ATCC 11303 by tube dilution method. The data set is classed as functional.
Data set [15] has as its system HeLa. Kind of data set: Cytotoxicity against human HeLa cells assessed as colony formation at 3.1 ng/ml relative to control. In kind it is functional.
The subject of another data set is Micrococcus luteus. Kind of data set: Antimicrobial activity against Sarcina lutea ATCC 9341 by tube dilution method. The data set is classed as functional.
A further data set concerns Bacillus subtilis. Description: Antimicrobial activity against Bacillus subtilis ATCC 6633 by tube dilution method. In kind it is functional.
The subject of data set [16] is Mus musculus. Description: Toxicity in mouse P388 cells xenografted mouse assessed as induction of death at 0.4 mg/kg, ip. The data set is classed as organism-based. Set-up: dose 0.4 mg/kg, route intraperitoneal. The following applies: in vivo.
The test system of data set [17] is Mus musculus. Kind of data set: Toxicity in mouse P388 cells xenografted mouse assessed as induction of death at 4.4 mg/kg, ip. More on the design: dose 4.4 mg/kg, route intraperitoneal. The data set is classed as organism-based. The following applies: in vivo.
Data set [18] concerns P388. Kind of data set: Antitumor activity against mouse P388 cells xenografted in mouse assessed as median survival time at 6.6 mg/kg, ip relative to control. The data set is classed as functional. The following applies: route intraperitoneal.
The test system of data set [19] is HeLa. Description: Cytotoxicity against human HeLa cells assessed as inhibition of colony formation at 25 ng/ml relative to control. Set-up: scale not given: the % may be the effect or the level left. The data set is classed as functional.
In data set [20] the test system is P388. Kind of data set: Antitumor activity against mouse P388 cells xenografted in mouse assessed as median survival time at 4.4 mg/kg, ip relative to control. The data set is classed as functional. The following applies: route intraperitoneal.
Data set [21] concerns P388. Kind of data set: Antitumor activity against mouse P388 cells xenografted in mouse assessed as median survival time at 2.9 mg/kg, ip relative to control. In kind it is functional. The following applies: route intraperitoneal.
In data set [22] the test system is Mus musculus. Kind of data set: Toxicity in mouse P388 cells xenografted mouse assessed as induction of death at 2.9 mg/kg, ip. In kind it is organism-based. More on the design: dose 2.9 mg/kg, route intraperitoneal. The note with it: in vivo.

Converted amounts (≈) assume the structure as drawn.

Take `CC[C@]1(O)Cc2c(O)c3c(c(O)c2[C@@H](O[C@H]2C[C@H](N)[C@H](O)[C@H](C)O2)C1)C(=O)c1c(O)cccc1C3=O`: the Activity in the data set with P388 [1] was 136%; in the data set on HeLa [2] it was 36%; with HeLa [4], 55%; with Mus musculus [6], “Toxic”; in the data set with HeLa [7], 126%; in the data set on P388 [8], 109%. Also, the Activity in the data set with P388 [9] is 150%; in the data set with Mus musculus [11], “Non-toxic”; with P388 [12] it was 163%; in the data set on HeLa [15] it was 90%; in the data set on Mus musculus [16] it was “Non-toxic”. The results for the IC50 in the data set on HeLa [3], in the data set with P388 [5] and in the data set on P388 [10] were 0.0062 µg/mL (≈ 0.0124 µM), 0.004 µg/mL (≈ 0.00801 µM) and 0.0015 µg/mL (≈ 0.003 µM), respectively. Besides, the MIC in the data set on Staphylococcus aureus [13] turned out to be 25 µg/mL (≈ 50 µM); against Staphylococcus aureus [14], 12.5 µg/mL (≈ 25 µM); in the data set with Escherichia coli, 3.12 µg/mL (≈ 6.25 µM); in the data set on Micrococcus luteus, 1.56 µg/mL (≈ 3.12 µM); against Bacillus subtilis, 6.25 µg/mL (≈ 12.5 µM).
For `CC(=O)[C@]1(O)Cc2c(O)c3c(c(O)c2[C@@H](O[C@H]2C[C@H](N)[C@H](O)[C@H](C)O2)C1)C(=O)c1c(O)cccc1C3=O` [CARUBICIN], the Activity in the data set on HeLa [2] turned out to be 0%; with HeLa [4] it was 3%; with HeLa [7], 120%; with HeLa [15], 33%. Also, the values for the IC50 in the data set on HeLa [3], in the data set on P388 [5] and in the data set on P388 [10] were 0.0031 µg/mL (≈ 0.00604 µM), 0.004 µg/mL (≈ 0.00779 µM) and 0.007 µg/mL (≈ 0.0136 µM), respectively.
For `COc1cccc2c1C(=O)c1c(O)c3c(c(O)c1C2=O)C[C@@](O)(C(C)=O)C[C@@H]3O[C@H]1C[C@H](N)[C@H](O)[C@H](C)O1` [DAUNORUBICIN], the Activity result is recorded as “Non-toxic” with Mus musculus [17]; 48% in the data set on HeLa [2]; 123% in the data set on HeLa [4]; 13% with HeLa [19]; “Non-toxic” with Mus musculus [22]. The values for the T/C with P388 [18], in the data set with P388 [20] and in the data set on P388 [21] were 168%, 190% and 177%, respectively. Moreover, the IC50 in the data set with HeLa [3] came out at 0.0125 µg/mL (≈ 0.0237 µM); in the data set with P388 [5], 0.75 µg/mL (≈ 1.42 µM); in the data set on P388 [10] it was 0.0095 µg/mL (≈ 0.018 µM).

For orientation: MIC means the lowest concentration that inhibits growth of the organism. As a reminder, the T/C is the ratio of treated to control.
